Results taken from patent US8815935B2, “Inhibitors of protein prenyltransferases” (The Regents of the University of California, priority 2008, dated 2014).

Key:
[1] = molecular target: GGTase I (RhoA as substrate) (Homo sapiens, UniProt P49354+P53609); experiment: GGTase I filter-binding assay, RhoA as substrate (library screens); assay type: biochemical; settings: compound 50 μM, DMSO = 100%, smaller = better inhibition
Description: (§1) The pilot library was screened for inhibitors of protein geranylgeranyltransferase type I. Protein prenyltransferase assays were carried out by using filter binding. Two different substrates, RhoA and K-Ras4B, were used for the assay. RhoA ends with the CaaL motif and is an exclusive substrate for GGTase I, while K-Ras4B ends with the CaaX motif and is modified by both GGTase I and FTase.
(§2) In the assay, a fixed concentration of 100 μM was used and the results are plotted for the inhibition of RhoA (vertical axis) as well as for K-Ras4B (horizontal axis). […] They are 2,6-diaryl-N-tosyl-1,2,5,6-tetrahydropyridine-3-carboxylic acids, except P2-D5 that is missing an aryl substituent at C2.
The % activity of GGTase I was determined as follows: a working solution that contained each compound in DMSO at the concentration of 1 mM was prepared. The working solution was added to GGTase I reaction mixture so that the final concentration of the compound is 50 μM. GGTase I activity was assayed by incubating [^3H]GGPP with K-Ras4B or RhoA protein in the presence of GGTase I and examining radioactivity incorporated into the substrate protein by spotting onto a filter paper. After washing with TCA, ethanol and acetone, the radioactivity retained on the filter was determined by the use of a scintillation counter. GGTase I activity in the presence of DMSO was taken as a 100% value and the activity in the presence of the compound was shown as percent activity compared with the 100% value. […] For 6-aryl-4-mercapto-N-sulfonyl-piperidine-3-carboxylic acid 11 the 4-mercapto substituent appeared critical to endowing GGTase inhibitory activity. […] 4-Chlorobenzylthio substituent was the next best; 12 compounds out of 21 containing the 4-chlorobenzylthio moiety were active. […]
A collection of 138 heterocycles was screened for their ability to inhibit the activity of human GGTase-I to geranylgeranylate K-Ras4B or RhoA. […] After 30 min, the degree of incorporation of tritiated geranylgeranyl groups was measured using a scintillation counter.

[2] = molecular target: GGTase I (K-Ras4B as substrate) (Homo sapiens, UniProt P49354+P53609); experiment: GGTase I filter-binding assay, K-Ras4B as substrate (library screens); assay type: biochemical; settings: for % activity of GGTase I for K-Ras4B in the presence of the compound: compound 50 μM, DMSO = 100%, smaller = better inhibition, 50 µM
Description: as §1, §2
The % activity of GGTase I was determined as follows: a working solution that contained each compound in DMSO at the concentration of 1 mM was prepared. The working solution was added to GGTase I reaction mixture so that the final concentration of the compound is 50 μM. GGTase I activity was assayed by incubating [^3H]GGPP with K-Ras4B or RhoA protein in the presence of GGTase I and examining radioactivity incorporated into the substrate protein by spotting onto a filter paper. After washing with TCA, ethanol and acetone, the radioactivity retained on the filter was determined by the use of a scintillation counter. GGTase I activity in the presence of DMSO was taken as a 100% value and the activity in the presence of the compound was shown as percent activity compared with the 100% value. […] For 6-aryl-4-mercapto-N-sulfonyl-piperidine-3-carboxylic acid 11 the 4-mercapto substituent appeared critical to endowing GGTase inhibitory activity. […] 4-Chlorobenzylthio substituent was the next best; 12 compounds out of 21 containing the 4-chlorobenzylthio moiety were active. 4-Benzylthio substituent was also good; 7 piperidines out of 21 bearing 4-benzylthio group were active. […] 19 imines (C15>C12=C41>C40>C01=C11>C05=C10=C30=C35=C37=C38>C02, C03, C04, C06, C39=C43) out of 21 appeared in the GGTIs. […] This corresponds to 47 6-aryl-4-mercapto-N-sulfonyl-piperidine-3-carboxylic acids out of 357 compounds.
A collection of 138 heterocycles was screened for their ability to inhibit the activity of human GGTase-I to geranylgeranylate K-Ras4B or RhoA. Purified GGTase-I was incubated with its substrate protein K-Ras4B or RhoA, [^3H]GGPP, and the 138 compounds. After 30 min, the degree of incorporation of tritiated geranylgeranyl groups was measured using a scintillation counter.

[3] = molecular target: T1, FTase (Rattus norvegicus, UniProt Q02293+Q04631); experiment: In vitro FTase assay (K-Ras4B substrate, [3H]FPP); assay type: biochemical; settings: P3-D9, P3-E5: concentration increased to 100 (unit not given)
T1 construct: purchased JENA BIOSCIENCE
From the text: To further characterize the pilot library, inhibitors of protein farnesyltransferase were identified. This was accomplished by using K-Ras4B as a substrate protein, tritiated farnesylpyrophosphate ([^3H]FPP) and protein farnesyltransferase. See Finegold, A. A., Johnson, D. I., Farnsworth, C. C., Gelb, M. H., Judd, S. R., Glomset, J. A. and Tamanoi, F. (1991) Protein geranylgeranyltransferase of Saccharomyces cerevisiae is specific for Cys-Xaa-Xaa-Leu motif and requires the CDC43 gene product but not the DPR1 gene product. Proc. Natl. Acad. Sci. USA 88, 4448-4452. […] On the other hand, the structure of the compounds P1-F11, P2-B7 and P2-E9 resemble those of GGTIs. The FTI P1-F11 resembles the GGTI P1-F10, while the FTI P2-B7 resembles the GGTI P2-C10. The FTI P2-E9 is similar to the GGTI P2-G3. Similarity of some GGTI and FTI compounds may point to common structural features between the two closely related enzymes. As described before, FTase and GGTase I have similar three-dimensional structures and a shared alpha subunit. On the other hand, FTase specific inhibitors may recognize a region(s) that is different between the two enzymes.
Examples 2-8 illustrate assays of bioactivity. These methods are applicable to the compounds of the present invention having the particular linkers and scaffolds described herein, to determine their activity. […] Varying concentrations of the two compounds were added to each enzyme reaction. The FTase (protein farnesyltransferase) assay was carried out using K-Ras4B as a substrate protein, FTase (JENA Bioscience, San Diego, Calif.) and [3H]farnesyl pyrophosphate. Incubation was for 30 min at 37° C.
GGTase-I and FTase activities were determined by following the incorporation of radiolabeled isoprenoid [^3H]-geranylgeranyl or [^3H]-farnesyl into substrate proteins. FTase or GGTase-I (50 nM) were used to initiate reactions containing 0.4 μM of [^3H]-FPP or 0.5 μM of [^3H]-GGPP and 2 μM of MBP-tagged substrates (K-Ras4B for FTase; RhoA for GGTase-I) in 20 μl of buffer {50 mM Tris-HCl (pH 7.5), 10 mM MgCl2, […] and 5 mM DTT}. Inhibitors were added at the indicated concentrations. The final DMSO concentration was 2.5% for all samples.
Reactions were carried out for 10 min at 30° C. The reaction mixture was spotted onto a filter paper, treated with 10% trichloroacetic acid (TCA) followed by ethanol and acetone washing. The filter was counted using a scintillation counter. Kinetic assays in which the GGPP concentration was varied employed fixed concentrations of GGTase-I and RhoA, and reactions were carried out for 5 min. Similarly, fixed concentrations of GGTase-I and GGPP were used when the amount of RhoA was varied.

[4] = molecular target: T2, GGTase-I (Rattus norvegicus, UniProt P53610+Q04631); experiment: In vitro GGTase-I enzyme assay (IC50, kinetics); assay type: biochemical
T2 construct: purchased JENA BIOSCIENCE
In short: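 Rat GGTase-I (50 nM) with 0.5 μM [3H]-GGPP and 2 μM MBP-RhoA in Tris-HCl pH 7.5, MgCl2, ZnCl2, DTT, 2.5% DMSO, 10 min at 30 °C; radiolabel incorporation by TCA filter binding and scintillation. Kinetics: 5 min reactions varying GGPP or RhoA at fixed other components.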

[5] = system: H-Ras farnesylation in NIH3T3 cells; experiment: H-Ras mobility shift immunoblot in NIH3T3 cells; assay type: cell-based; settings: 48 hours
Description: K562 cells were treated with modified compounds for 72 hours and then cell number was counted. IC50 values of cell viability relative to the DMSO were measured. […] Data represent the mean+/−S.D. of two measurements from two independent experiments. *, P<0.05 compared with the value for DMSO. […] Whole cell lysates from cells treated with DMSO, P5-H6, P61-A6, GGTI (GGTI-298), FTI (BMS-225975) or RabGGTI (P49-F6) for 48 hours were prepared and processed for immunoblot analysis using antibody against unprenylated form of Rap1 (C: upper panel), Total-Rap1 (C: middle panel), H-Ras (D: upper panel), Rab5b (E: upper panel) or actin (C, D, and E: lower panel). The immunoblots shown represent two independent experiments for each treatment.
This was examined by using a farnesylated protein H-Ras.

## Cc1ccccc1S(=O)(=O)N1C(c2ccc(Cl)cc2)CC=C(C(=O)O)[C@@H]1c1ccccc1 (some centres unmarked) [drawing 33]
[1]
  % activity of GGTase I for RhoA in the presence of the compound: 8.8%
[2]
  % activity of GGTase I for K-Ras4B in the presence of the compound: 10.6%

## Cc1ccccc1S(=O)(=O)N1C(c2ccc(Cl)cc2)CC=C(C(=O)O)[C@@H]1c1ccccc1 (some centres unmarked) [drawing 39]
[1]
  % activity of GGTase I for RhoA in the presence of the compound: 12.4%
[2]
  % activity of GGTase I for K-Ras4B in the presence of the compound: 15.6%

## COC(=O)[C@H](CC(C)C)NC(=O)c1ccc(NC[C@@H](N)CS)cc1-c1cccc2ccccc12 [GGTI-298, reference compound]
[3]
  inhibition of FTase activity (FIG. 16): little inhibition
[4]
  inhibition of GGTase I (FIG. 16 controls): inhibits GGTase I
[2]; pilot screen 100 μM, library screen 50 μM
  relative inhibition of RhoA-driven versus K-Ras4B-driven GGTase I activity: inhibit RhoA-driven GGTase I activity slightly better than K-Ras4B-driven GGTase I activity
[5]
  mobility shift of H-Ras (protein farnesylation): no such mobility shift
